Paper PMC4408175, “Functional and structural diversity in GH62 α-L-arabinofuranosidases from the thermophilic fungus Scytalidium thermophilum” (Microbial Biotechnology, 2014)

Target: T1, Abf62C (Mycothermus thermophilus, UniProt A0A059U759)
T1 construct: gene AXH62C; N-terminal His tag, pET15b LIC, E. coli BL21(DE3) Gold; monomer
Assay: X-ray crystal structure of complex, […] Å
Type: binding
Conditions: co-crystals, 2 mM preincubation, 20 mM xylotriose in reservoir, 22 °C; active site subsites +2NR, +1, +2R; no calcium

T1 sequence (A0A059U759 entry or part of it): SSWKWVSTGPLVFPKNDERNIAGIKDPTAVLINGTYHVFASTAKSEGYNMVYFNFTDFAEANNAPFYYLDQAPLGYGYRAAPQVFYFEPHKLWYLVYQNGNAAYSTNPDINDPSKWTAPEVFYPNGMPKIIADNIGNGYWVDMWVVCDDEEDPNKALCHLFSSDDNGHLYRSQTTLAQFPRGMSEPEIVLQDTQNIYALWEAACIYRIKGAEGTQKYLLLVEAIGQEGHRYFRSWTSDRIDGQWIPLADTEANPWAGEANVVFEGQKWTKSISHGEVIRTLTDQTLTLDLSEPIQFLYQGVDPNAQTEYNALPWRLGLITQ

SMILES: OC1OC[C@@H](O[C@@H]2OC[C@@H](O[C@@H]3OC[C@@H](O)[C@H](O)[C@H]3O)[C@H](O)[C@H]2O)[C@H](O)[C@H]1O (stereo partly shown) [xylotriose]
- X-ray crystal structure of complex, 1.48 Å: Abf62C-xylotriose complex have been deposited in the Research Co-laboratory for Structural Bioinformatics Protein Data Bank
